Data published in patent US20070054902A1, “Isoxazole derivatives as peroxisome proliferator-activated receptors agonists” (SHIONOGI & CO., LTD., priority 2003, published 2007).

What was measured:
human PPARδ (hPPARδ) = biological target: T1, human PPARδ (hPPARδ) (Homo sapiens, UniProt Q03181); experiment: Test for transcriptional activity of PPARδ (GAL4 chimeric transcription-factor reporter assay in CHO cells); type: cell-based; settings: GAL4-hPPARδ LBD chimeric reporter in CHO cells
T1 construct: δ:aa 139-C-end; expressed in transfected cells
T1 sequence (Q03181 139-441 limits assumed): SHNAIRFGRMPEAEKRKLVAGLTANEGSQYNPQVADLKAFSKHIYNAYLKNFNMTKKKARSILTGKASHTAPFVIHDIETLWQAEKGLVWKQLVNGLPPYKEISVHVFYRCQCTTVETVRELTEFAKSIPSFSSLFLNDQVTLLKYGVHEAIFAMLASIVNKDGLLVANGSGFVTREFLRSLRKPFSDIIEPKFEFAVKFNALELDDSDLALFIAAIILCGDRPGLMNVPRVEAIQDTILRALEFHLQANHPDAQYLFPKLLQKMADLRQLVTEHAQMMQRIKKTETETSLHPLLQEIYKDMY
Source text: A chimeric transcription-factor assay, which is commonly used to detect nuclear receptor activity, was employed to measure PPAR transcriptional activity. Specifically, two plasmids, one that expresses the fusion protein of DNA binding domain of yeast transcription factor GAL4 and a ligand binding domain of a receptor, and a reporter plasmid were transiently transfected to CHO cells. The activity of the promoter containing a recognition sequence of GAL4 coded on the reporter plasmid was used as a parameter to estimate the activity of the receptor.
Then, each obtained cDNA-fragment was subcloned into pBIND vector (Promega) to construct a plasmid expressing the fusion protein with DNA binding domain of yeast transcription factor. GAL4. pG51uc vector (Promega) was used as a reporter plasmid.
Cell culturing and transfection: CHO cells were cultured in 10% FBS-αMEM. With a 96-well plate (Costar), CHO cells, that were dispersed with trypsin treatment, 20000 cells per well and the two plasmids obtained by the above procedure, 25 ng per well, were transfected with FuGene Reagent (Roche) by following the instruction of the manufacture.
Measurement of the transcriptional activity: CHO cells 100 μl per well, which were transfected as above, were dispensed into the wells in which a test compound dissolved in DMSO 0.5 μl was spotted in advance. After the cells and a test compound were cultured together for 24 hours in a CO2 incubator, the luciferase activity was measured by adding luciferase substrates, PicaGene LT2.0 (Toyo ink) 100 μl per well. LUMINOUS CT9000D (DIA-IATRON) is used to measure the activity.

CYP2C9 = biological target: T2, CYP2C9 (Homo sapiens, UniProt P11712); experiment: Test for inhibition of CYP2C9 enzyme (tolbutamide 4-position hydration, human liver microsomes); type: in vitro ADME; settings: pH 7.4, probe tolbutamide (14C labeled), 5 µM, human liver microsomes 0.25 mg/ml, 5 μM tolbutamide, 37° C., solvent control = 100%, read-out: Residual activity (%) CYP2C9
T2 construct: the protein concentration, 0.25 mg/ml (human liver microsomes, 15 pol, Lot. 210296, XenoTech); tissue XenoTech Lot; 210296; host or cells: human liver microsomes (pooled)
Protocol: The reaction condition is as below. A substrate, 5 μM Tolbutamide (14C labeled compound); the reaction time, 30 minutes; the reaction temperature, 37° C.; the protein concentration, 0.25 mg/ml (human liver microsomes, 15 pol, Lot. 210296, XenoTech).
To the HEPES Buffer (pH 7.4), is added the protein (human liver microsomes), a drug solution and a substrate with the composition as the above. NADPH, which is a coenzyme of the reaction, is added thereto to start the reaction. After reacting for the fixed hours, 2N hydrochloric acid solution is added thereto and the reaction is stopped by removing protein. The remaining substrate drug and the generating metabolite are extracted with chloroform. The solvent is removed and the residue is redissolved in methanol. This solution was spotted on TLC, developed with chloroform:methanol: acetic acid=90:10:1, contacted on the imaging plate for about 14-20 hours and analyzed by BAS2000. As to the generation activity of the metabolite, Tolbutamide 4-potition hydration body, the activity in case that the solvent dissolving a drug is added to the reaction assay is used as a control (100%). The residual activity (%) in case that the test drug solution is added to the reaction is calculated.

[1] = 24 hours, concentration showing 1/2 of maximum luciferase activity (Table 166)

T2 sequence (P11712 whole entry): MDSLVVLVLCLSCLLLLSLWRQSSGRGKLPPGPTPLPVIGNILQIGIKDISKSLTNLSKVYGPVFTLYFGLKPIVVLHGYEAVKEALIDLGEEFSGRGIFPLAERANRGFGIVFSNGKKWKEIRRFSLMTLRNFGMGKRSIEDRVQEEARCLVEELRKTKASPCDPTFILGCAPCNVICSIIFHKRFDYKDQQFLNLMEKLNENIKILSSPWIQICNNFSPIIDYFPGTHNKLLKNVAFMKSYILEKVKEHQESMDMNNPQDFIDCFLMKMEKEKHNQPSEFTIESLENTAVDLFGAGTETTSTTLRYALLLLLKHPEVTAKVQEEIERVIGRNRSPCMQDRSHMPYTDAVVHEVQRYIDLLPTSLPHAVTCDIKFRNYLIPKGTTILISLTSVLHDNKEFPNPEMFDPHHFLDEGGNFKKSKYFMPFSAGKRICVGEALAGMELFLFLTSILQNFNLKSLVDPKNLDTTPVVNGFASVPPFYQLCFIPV

Structure (SMILES) | melting point [°C] | EC50 (human PPARδ (hPPARδ); [1]) [nM] | EC50 (human PPARδ (hPPARδ); 24 hours (Table 168)) [nM] | activity at 30 min (CYP2C9) [%]
COCc1c(COc2ccc(OCC(=O)O)c(C)c2)noc1-c1ccc(C(F)(F)F)cc1 [α-5-1, {4-[4-Methoxymethyl-5-(4-trifluoromethylphenyl)-isoxazole-3-ylmethoxy]-2-methyl-phenoxy}-acetic acid] | 105 to 107 | – | – | –
COC(=O)COc1ccc(C(=O)CCc2noc(-c3ccc(C(F)(F)F)cc3)c2C)cc1C [α-6-3-1, (2-Methyl-4-{3-[4-methyl-5-(4-trifluoromethylphenyl)-isoxazole-3-yl]-propionyl}-phenoxy)-acetic acid methyl ester] | 133 to 134 | – | – | –
Cc1cc(C(=O)CCc2noc(-c3ccc(C(F)(F)F)cc3)c2C)ccc1OCC(=O)O [α-6-4-1, (2-Methyl-4-{3-[4-methyl-5-(4-trifluoromethylphenyl)-isoxazole-3-yl]-propionyl}-phenoxy)-acetic acid] | 191 to 194 | – | – | –
Cc1cc(SCc2noc(-c3ccc(Cl)cc3)c2C)ccc1OCC(=O)O [β-1-8] | 157 to 159 | 11 | – | –
COCc1c(CSc2ccc(OCC(=O)O)c(C)c2)noc1-c1ccc(C(F)(F)F)cc1 [β-1-15] | 105 to 107 | 1.5 | – | –
Cc1c(COc2ccc(C=CC(=O)O)cc2F)noc1-c1ccc(C(F)(F)F)cc1 [β-2-15, 3-{3-Fluoro-4-[4-methyl-5-(4-trifluoromethylphenyl)isoxazole-3-ylmethoxy]phenyl}acrylic acid] | 261 to 262.5 | – | – | –
Cc1cc(SCc2cc(-c3ccc(C(F)(F)F)cc3)on2)ccc1/C=C/C(=O)O [β-2-38] | 179.5 to 181.5 | – | 35 | 47
Cc1c(COc2ccc3c(ccn3CC(=O)O)c2)noc1-c1ccc(C(F)(F)F)cc1 [β-3-1, {5-[4-Methyl-5-(4 trifluoromethylphenyl)isoxazole-3-ylmethoxy]indole-1-yl}acetic acid] | 159 to 160 | – | – | –

The next lines start with the values.

melting point [°C] | EC50 (human PPARδ (hPPARδ); [1]) [nM] | EC50 (human PPARδ (hPPARδ); 24 hours (Table 168)) [nM] | activity at 30 min (CYP2C9) [%] | Structure (SMILES)
203 to 204.5 | 9.5 | – | – | Cc1cc(SCc2noc(-c3ccc(C(F)(F)F)cc3)c2C)ccc1Cc1noc(=O)[nH]1 [α-7-3-1, 3-[2-methyl-4-[4-methyl-5-(4-trifluoromethylphenyl)isoxazole-3-ylmethylsulfanil]benzil]-4H-[1,2,4]oxadiazole-5-on]
129 to 131 | 9.9 | – | – | Cc1cc(SCc2noc(-c3ccc(C(F)(F)F)cc3)c2C)ccc1OCC(=O)O [β-1-3]
139 to 141 | 16 | – | – | Cc1c(CSc2ccc3c(ccn3CC(=O)O)c2)noc1-c1ccc(C(F)(F)F)cc1 [β-4-1, {5-[4-Methyl-5-(4-trifluoromethylphenyl)isoxazole-3-ylmethylsulfanil]indole-1-yl}acetic acid]
139 to 141 | 14 | – | – | Cc1c(CSc2ccc(-c3sccc3C(=O)O)cc2)noc1-c1ccc(C(F)(F)F)cc1 [β-5-1, 2-{4-[4-Methyl-5-(4-trifluoromethylphenyl)isoxazole-3-ylmethylsulfanil]phenyl}thiophene-3-carboxylic acid]
